According to publication PMC4013293 (Bioorganic & medicinal chemistry, 2013):

Assays:
human ERα = molecular target: T1, human ERα (Homo sapiens, UniProt P03372); assay: Fluorescence polarization displacement assay with FITC-estradiol; assay type: binding; conditions: fluorescence polarization screen of twelve compounds
T1 sequence (P03372 1-595): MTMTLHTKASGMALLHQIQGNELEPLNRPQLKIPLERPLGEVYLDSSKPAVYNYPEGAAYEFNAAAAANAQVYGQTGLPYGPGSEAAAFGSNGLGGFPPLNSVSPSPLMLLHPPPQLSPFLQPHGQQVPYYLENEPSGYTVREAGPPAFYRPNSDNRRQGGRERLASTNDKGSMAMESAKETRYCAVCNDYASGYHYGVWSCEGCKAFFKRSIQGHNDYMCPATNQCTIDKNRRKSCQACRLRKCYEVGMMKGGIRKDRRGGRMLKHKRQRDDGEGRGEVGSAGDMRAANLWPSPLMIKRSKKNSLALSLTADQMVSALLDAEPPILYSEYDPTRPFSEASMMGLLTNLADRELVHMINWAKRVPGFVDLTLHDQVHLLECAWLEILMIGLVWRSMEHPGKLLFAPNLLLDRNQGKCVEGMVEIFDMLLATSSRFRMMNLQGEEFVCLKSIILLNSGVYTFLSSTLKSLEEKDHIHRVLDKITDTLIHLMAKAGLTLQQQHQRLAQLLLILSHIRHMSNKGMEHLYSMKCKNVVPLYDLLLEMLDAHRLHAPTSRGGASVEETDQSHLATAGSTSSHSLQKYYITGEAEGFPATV

ERβ = ERβ (Homo sapiens, UniProt Q92731); assay: Cell-based ERβ luciferase reporter luminescence assay, agonist mode; conditions: read-out: ERβ agonist IC50; luciferase reporter cells, 22 h, duplicate
Chain of ERβ (Q92731 whole entry): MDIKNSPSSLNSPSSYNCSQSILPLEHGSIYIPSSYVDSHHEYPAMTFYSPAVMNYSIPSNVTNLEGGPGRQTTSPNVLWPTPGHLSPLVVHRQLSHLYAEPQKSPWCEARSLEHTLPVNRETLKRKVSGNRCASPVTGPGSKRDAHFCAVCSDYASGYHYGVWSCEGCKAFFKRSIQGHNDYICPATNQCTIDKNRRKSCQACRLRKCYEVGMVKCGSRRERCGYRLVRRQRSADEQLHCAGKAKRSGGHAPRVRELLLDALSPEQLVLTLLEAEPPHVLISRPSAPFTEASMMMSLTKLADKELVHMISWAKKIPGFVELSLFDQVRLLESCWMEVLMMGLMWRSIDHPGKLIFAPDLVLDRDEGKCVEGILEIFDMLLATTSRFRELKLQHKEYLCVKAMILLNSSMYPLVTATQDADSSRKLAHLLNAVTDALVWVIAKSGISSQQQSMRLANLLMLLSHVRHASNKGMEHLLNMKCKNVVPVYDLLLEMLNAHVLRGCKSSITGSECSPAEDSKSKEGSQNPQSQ

| IC50 (ERβ) | SMILES | Affinity for ERα at concentrations as high as 1 μM (in words) (human ERα) |
| --- | --- | --- |
|  | CCCOC(=O)C1CC[C@H]2[C@@H]3CCc4cc(O)ccc4[C@H]3CC[C@]12C (stereo partly drawn) [Compound 4, n-Propyl 3-hydroxyestra-1,3,5(10)-triene-17-carboxylate] | significant affinity |
| 5.4 ± 0.3 nM | OC[C@H]1CCC[C@@H](c2ccc(O)cc2)CC1 (relative stereo) [Compound 18, cis-1-Hydroxymethyl-4-(4′-hydroxyphenyl)-cycloheptane] | significant affinity |
|  | CC[C@H](C)C1=CC[C@H]2[C@@H]3CCc4cc(O)ccc4[C@H]3CC[C@]12C [Compound 7, (20S) 3-Hydroxy-19,24-dinorchola-1,3,5(10),16-tetraene] | significant affinity |
|  | CC1C[C@H](C)C2(CC[C@H]3[C@@H]4CCc5cc(O)ccc5[C@H]4CC[C@@]32C)O1 (stereo partly drawn) [Compound 13, 17,23-Epoxy-3-hydroxy-19-norchola-1,3,5(10)-triene] | significant affinity |
|  | C[C@@H](CCO)C1=CC[C@H]2[C@@H]3CCc4cc(O)ccc4[C@H]3CC[C@]12C [Compound 11, (20S) 3-Hydroxy-19,24-Dinorchola-1,3,5(10),16-tetraen-23-ol] | significant affinity |
